Here are results for 2 compounds from US20190255080A1, “METHOD OF REDUCING THYROID-ASSOCIATED SIDE EFFECTS” (Viking Therapeutics, Inc., priority 2016, published 2019).

Each structure is given as a SMILES string. Entries after “also recorded” stand apart in the source; their conditions may differ.

Series [1] is described as follows: Previously determined no observable adverse effect level (NOAEL) and exposure at it. The following applies: in vivo. Here is the method: (§1) The maximum cumulative weekly dose will not exceed 40 mg in this current clinical study. […] The projected systemic exposure (AUC0-168 hr [i.e., exposure during one week]) of the active metabolite at the 40 mg once weekly dose is 5570 ng*hr/mL. […] Projected exposures in humans receiving 40 mg once weekly is therefore estimated to be about 3-fold lower than exposures at the previously determined 5 mg/kg/day no observable adverse effect level (NOAEL).

The test system of series [2] is patients with primary hypercholesterolemia and non-alcoholic fatty liver disease. In words: Phase 1b study: LDL-C and triglycerides over 4-week treatment period. Type of series: in vivo, humans. Conditions: 5 mg daily and up to 40 mg once weekly. As to the method:
A phase 1b, randomized, double-blind, placebo-controlled, study is carried out to assess the efficacy, safety, and tolerability of Compound 1, administered for 12 weeks followed by a 4-week off-drug phase, in patients with primary hypercholesterolemia and non-alcoholic fatty liver disease.
as §1
Approximately 32 subjects are enrolled and randomly assigned in a 6:2 ratio (Compound 1:placebo) to one of the following treatment groups: (1) 5 mg Compound 1 or Placebo once daily (2) 20 mg Compound 1 or Placebo once weekly (3) 40 mg Compound 1 or Placebo once weekly (4) 10 mg Compound 1 or Placebo every other day The primary endpoint is the percent change in LDL-C from the baseline visit to Day 29. Either a 20% decrease in LDL-C or a lowering of LDL-C to within the normal range is considered clinically meaningful. Subjects are also monitored for adverse effects and/or clinically relevant changes in health status or results from laboratory analyses. […]

Series [3] relates to beagle dogs. Description: Alternative dosing study in dogs: indicators of thyroid function (serum tT4, fT4, tT3, fT3, TSH). Type of series: in vivo. Here is the method: (§2) The objective of the study was to determine the effects of oral administration of Compound 2 once-daily for 14 days followed by alternate day dosing for 14 days on plasma cholesterol levels and indicators of thyroid function in beagle dogs. Compound 2 was formulated with Lutrol F68 NF (Poloxomer 188) and carboxymethylcellulose (CMC; sodium salt/high viscosity) and was administered as a suspension in 0.5% CMC/1% Lutrol in deionized water. Twelve beagle dogs (9-15 kg) were randomized into 6 dosing groups (1 male and 1 female/group) and gavaged once-daily with a 0.5% CMC/1% Lutrol F68 suspension of Compound 2 at doses of […] or with vehicle for 14 days. At the end of the treatment cycle (Cycle 1), the dogs were washed out for 4 weeks and then entered into a second 14-day treatment cycle. Cycle 2 employed the same dosing paradigm as Cycle 1, but animals were randomized to Cycle 2 in such a way that the combined dosing groups from the two cycles consisted of 4 different animals (2 males, 2 females) each. At the conclusion of Cycle 2, dosing was continued on alternate days for an additional 14-day period (Cycle 2 Extension). Blood samples were collected at baseline and appropriate time intervals thereafter and analyzed for total plasma cholesterol levels, serum levels of total T4 (tT4), free T4 (fT4), total T3 (tT3), free T3 (fT3), and thyroid stimulating hormone (TSH).

For series [4], the system named is beagle dogs. In words: Alternative dosing study in dogs: total plasma cholesterol levels. Type of series: in vivo. As to the method:
as §2

Where [5] appears, read: alternate day dosing after once-daily treatment.
The mark [6] stands for this setting: 0.3 mg/kg/day, once-daily oral, 14 days.
The mark [7] stands for this setting: 10 mg/kg/day (highest dose), once-daily oral, 14 days.

Usually NOAEL stands for the highest tested level that showed no adverse finding. In turn, `Cc1cc(OCP(=O)(OCOC(=O)C(C)(C)C)OCOC(=O)C(C)(C)C)cc(C)c1Cc1ccc(O)c(Cc2ccccc2)c1` [Compound 1] gave an NOAEL in series [1] of 5 mg/kg/day. Besides, in series [2], the LDL-C result is “dose and/or schedule dependent decreases” and the triglycerides entry was “dose and/or schedule dependent decreases”.
In the case of `Cc1cc(OC[P@]2(=O)OC[C@@H](c3cccc(Cl)c3)CO2)cc(C)c1Cc1ccc(O)c(C(C)C)c1` [Compound 2], in the series with beagle dogs [3] (setting [5]), the “levels of fT4 during Cycle 2 Extension” value is reported as “gradually recovered to levels that approached those of vehicle-treated animals”, the “levels of tT4 during Cycle 2 Extension” value is “gradually recovered to levels that approached those of vehicle-treated animals”, the “recovery of TSH levels during Cycle 2 Extension” value is on record as “more variable recovery” and the “recovery of fT3 levels during Cycle 2 Extension” value is “more variable recovery”. Moreover, the “effects on serum TSH levels on Day 8” value in the series on beagle dogs [3] (once-daily treatment, Day 8) is “variable, with full suppression in some animals and up to 4-fold elevations in others”. Besides, the “TSH levels reduced from baseline on Day 15” value with beagle dogs [3] (once-daily treatment, Day 15, non-dose-dependent) was 6-27%. Moreover, the “changes in tT3 levels relative to baseline levels” value in the series on beagle dogs [3] (once-daily treatment, compared with vehicle-treated group) is on record as “no meaningful changes; also recorded: unaffected”. Besides, the “reductions of serum tT4 from baseline levels” value in the series with beagle dogs [3] (once-daily treatment, dose-dependent, across dose groups) is recorded as 20-54%. The “reductions of fT4 from baseline levels” value in the series on beagle dogs [3] (once-daily treatment, dose-related, across dose groups) is listed as 8-39%. In addition, in the series with beagle dogs [3] (once-daily treatment, non-dose-dependent, across dose groups), the “reductions of fT3 from baseline levels” value is recorded as 15-32%. Also, the “effects on total plasma cholesterol levels” value in the series on beagle dogs [4] (0.1 mg/kg/day (lowest dose), once-daily oral) is recorded as “minimal effects”. Besides, in the series on beagle dogs [4] (setting [6]), the “average reduction of total plasma cholesterol levels on Day 15” value is -28 mg/dL and the “average reduction of total plasma cholesterol levels on Day 15 from baseline” value is around 22%. For the same compound, in the series with beagle dogs [4] (setting [7]), the “average reduction of total plasma cholesterol levels on Day 15” value was -71 mg/dL and the “average reduction of total plasma cholesterol levels on Day 15 from baseline” value was around 47%. Moreover, the “total plasma cholesterol levels during alternate day dosing” value in the series with beagle dogs [4] (Cycle 2 Extension, alternate day dosing for 14 days after 14 days once-daily) is “remained reduced relative to vehicle-treated animals to a similar or greater extent than observed after once-daily dosing; also recorded: did not compromise cholesterol lowering efficacy”. Further, the “reductions of average total plasma cholesterol levels from baseline” value in the series with beagle dogs [4] (once-daily oral, 14 days, 0.1-10 mg/kg) is recorded as “up to 47%”.
